Like-named read-outs stand apart in the source and are kept apart here.
What was measured:
[1] = tested on: HIV-1 laboratory strain, NL4-3; assay: MT-4 cytoprotection assay; assay type: cell-based
Procedure, shortened: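 MT-4 cells mock- or batch-infected with NL4-3 (MOI 0.0005) for 2 h, washed, then cultured 4 days with increasing compound concentrations. Viability read by WST-1 tetrazolium reduction: cytoprotection in infected cells, toxicity in mock-infected cells.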

[2] = tested on: HIV-1NL4-3; assay: P4-MAGI assay; assay type: cell-based
Procedure, shortened: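 Cytotoxicity (TC50, 50% growth inhibition) came from WST-1 in uninfected cells. For antiviral activity, compound at rising concentrations was added immediately after HIV-1NL4-3 inoculation (MOI 1, DEAE-Dextran) of P4 cells, CD4+ HeLa cells expressing β-galactosidase from a minimal HIV-1 LTR upon infection.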

[3] = Human immunodeficiency virus 1, NL43, MT4, 96 h, MT-4 cells, four days incubation, WST-1 readout, read-out: MT4 EC50
[4] = Human immunodeficiency virus 1, NL43, less than about 100 nm, read-out: MT-4 assay EC50 (concentration of compound that reduces the virus induced cytopathic effect by 50%)
[5] = Human immunodeficiency virus 1, 24 h, P4 cells, 24 hour incubation, β-galactosidase expression, read-out: P4-MAGI IC50
[6] = Human immunodeficiency virus 1, text statement, less than about 100 nm, read-out: P4-MAGI assay IC50

Compound	EC50 [1, 3] [nM]	EC50 [1, 4] [nM]	IC50 [2, 5] [nM]	IC50 [2, 6] [nM]
C=C(C)[C@@H]1CC[C@]2(C(=O)NCc3cccc(C(=O)NCCc4ccc(C(=O)O)cc4F)c3)CC[C@]3(C)C(CCC4[C@@]5(C)CC[C@H](O)C(C)(C)C5CC[C@]43C)C12 (some centres unmarked) [Example 43]	9.3	< 100	16.8	< 100
C=C(C)[C@@H]1CC[C@]2(C(=O)NCc3cccc(C(=O)NCC(C)c4cccc(C(=O)O)c4)c3)CC[C@]3(C)C(CCC4[C@@]5(C)CC[C@H](O)C(C)(C)C5CC[C@]43C)C12 (some centres unmarked) [Example 19]	19	< 100	6.2	< 100
C=C(C)[C@@H]1CC[C@]2(C(=O)NCc3cc(C(=O)NCc4cccc(C(=O)O)c4)ccc3F)CC[C@]3(C)C(CCC4[C@@]5(C)CC[C@H](O)C(C)(C)C5CC[C@]43C)C12 (some centres unmarked) [Example 101]	3.2	< 100	28.3	< 100
C=C(C)[C@@H]1CC[C@]2(C(=O)NCCc3cccc(C(=O)NCc4ccc(C#N)cn4)c3)CC[C@]3(C)C(CCC4[C@@]5(C)CC[C@H](O)C(C)(C)C5CC[C@]43C)C12 (some centres unmarked) [Example 252]	14	–	25	–
C=C(C)[C@@H]1CC[C@]2(C(=O)NCCc3cccc(C(=O)NCC4(CC(=O)O)CCCCC4)c3)CC[C@]3(C)C(CCC4[C@@]5(C)CC[C@H](O)C(C)(C)C5CC[C@]43C)C12 (some centres unmarked) [Example 212]	96.5	–	85	–
C=C(C)[C@@H]1CC[C@]2(C(=O)NCCc3ccc(F)c(C(=O)NCc4ccc(C(=O)O)cn4)c3)CC[C@]3(C)C(CCC4[C@@]5(C)CC[C@H](O)C(C)(C)C5CC[C@]43C)C12 (some centres unmarked) [Example 262]	7.2	–	11.5	–
C=C(C)[C@@H]1CC[C@]2(C(=O)NCc3cccc(C(=O)NCc4cccc(C(=O)O)c4)c3)CC[C@]3(C)C(CCC4[C@@]5(C)CC[C@H](O)C(C)(C)C5CC[C@]43C)C12 (some centres unmarked) [Example 6]	71	< 100	15.6	< 100
C=C(C)[C@@H]1CC[C@]2(C(=O)NCc3ccnc(C(=O)NCCc4ccc(C(=O)O)cc4)c3)CC[C@]3(C)C(CCC4[C@@]5(C)CC[C@H](O)C(C)(C)C5CC[C@]43C)C12 (some centres unmarked) [Example 92]	4870	–	121	–
C=C(C)[C@@H]1CC[C@]2(C(=O)NCCc3cccc(C(=O)NCC4CCC(C(=O)OC)CC4)c3)CC[C@]3(C)C(CCC4[C@@]5(C)CC[C@H](O)C(C)(C)C5CC[C@]43C)C12 (some centres unmarked) [Example 210]	33	–	30.8	–
C=C(C)[C@@H]1CC[C@]2(C(=O)NCCc3cccc(C(=O)NCc4ccc(OCCCn5cncc5C(=O)O)c(C(=O)O)c4)c3)CC[C@]3(C)C(CCC4[C@@]5(C)CC[C@H](O)C(C)(C)C5CC[C@]43C)C12 (some centres unmarked) [Example 246]	233	–	57.3	–
C=C(C)[C@@H]1CC[C@]2(C(=O)NCc3cccc(C(=O)NCc4cccc(C(=O)OC)c4F)c3)CC[C@]3(C)C(CCC4[C@@]5(C)CC[C@H](O)C(C)(C)C5CC[C@]43C)C12 (some centres unmarked) [Example 42]	42	< 100	58.3	< 100
C=C(C)[C@@H]1CC[C@]2(C(=O)NCCc3cccc(C(=O)NCc4ccc(OCCCO)cc4)c3)CC[C@]3(C)C(CCC4[C@@]5(C)CC[C@H](O)C(C)(C)C5CC[C@]43C)C12 (some centres unmarked) [Example 232]	71.5	–	38.5	–
C=C(C)[C@@H]1CC[C@]2(C(=O)NCCc3cccc(C(=O)NCc4ccc(C(=O)N[C@H](CC(=O)OC)C(=O)OC)cn4)c3)CC[C@]3(C)C(CCC4[C@@]5(C)CC[C@H](O)C(C)(C)C5CC[C@]43C)C12 (some centres unmarked) [Example 221]	35	–	9	–
C=C(C)[C@@H]1CC[C@]2(C(=O)NCCc3cccc(C(=O)NCc4ccc(OCCCn5ccnc5)cc4)c3)CC[C@]3(C)C(CCC4[C@@]5(C)CC[C@H](O)C(C)(C)C5CC[C@]43C)C12 (some centres unmarked) [Example 231]	18.5	–	14.2	–
C=C(C)[C@@H]1CC[C@]2(C(=O)NCCc3cccc(C(=O)NCc4ccc(C(=O)N5CC(O)C[C@@H]5C(=O)O)cc4)c3)CC[C@]3(C)C(CCC4[C@@]5(C)CC[C@H](O)C(C)(C)C5CC[C@]43C)C12 (some centres unmarked) [Example 178]	35	–	21	–
C=C(C)[C@@H]1CC[C@]2(C(=O)NCCc3ccc(F)c(C(=O)NCc4ccc(C(=O)OC)cn4)c3)CC[C@]3(C)C(CCC4[C@@]5(C)CC[C@H](O)C(C)(C)C5CC[C@]43C)C12 (some centres unmarked) [Example 261]	8.9	–	14.5	–
C=C(C)[C@@H]1CC[C@]2(C(=O)NCCc3cccc(C(=O)NCc4ncccc4C(=O)OC)c3)CC[C@]3(C)C(CCC4[C@@]5(C)CC[C@H](O)C(C)(C)C5CC[C@]43C)C12 (some centres unmarked) [Example 227]	761	–	67.5	–
C=C(CSCCO)[C@@H]1CC[C@]2(C(=O)NCCc3cccc(C(=O)NCc4ccc(C(=O)O)cn4)c3)CC[C@]3(C)C(CCC4[C@@]5(C)CC[C@H](O)C(C)(C)C5CC[C@]43C)C12 (some centres unmarked) [Example 267]	46	–	17.3	–
C=C(C)[C@@H]1CC[C@]2(C(=O)NCCc3cccc(C(=O)NCc4ccc(OCCCN5CCOCC5)cc4)c3)CC[C@]3(C)C(CCC4[C@@]5(C)CC[C@H](O)C(C)(C)C5CC[C@]43C)C12 (some centres unmarked) [Example 196]	12.5	–	13	–
C=C(C)[C@@H]1CC[C@]2(C(=O)NCCc3cccc(C(=O)NCc4cccc(COCc5cccc(C(=O)O)c5)c4)c3)CC[C@]3(C)C(CCC4[C@@]5(C)CC[C@H](O)C(C)(C)C5CC[C@]43C)C12 (some centres unmarked) [Example 208]	42.5	–	28.9	–
C=C(C)[C@@H]1CC[C@]2(C(=O)NCCc3cccc(C(=O)NCc4ccc(NCCCN5CCOCC5)cc4)c3)CC[C@]3(C)C(CCC4[C@@]5(C)CC[C@H](O)C(C)(C)C5CC[C@]43C)C12 (some centres unmarked) [Example 191]	16	–	29	–
C=C(C)[C@@H]1CC[C@]2(C(=O)NCCc3cccc(C(=O)NCc4ccc(C(=O)NCc5cccnc5C(=O)OC)cc4)c3)CC[C@]3(C)C(CCC4[C@@]5(C)CC[C@H](O)C(C)(C)C5CC[C@]43C)C12 (some centres unmarked) [Example 189]	25	–	4	–
C=C(C)[C@@H]1CC[C@]2(C(=O)NCc3cccc(C(=O)NCc4cccc(C(N)=O)c4)c3)CC[C@]3(C)C(CCC4[C@@]5(C)CC[C@H](O)C(C)(C)C5CC[C@]43C)C12 (some centres unmarked) [Example 23]	329	–	52.7	–
C=C(C)[C@@H]1CC[C@]2(C(=O)NCCc3cccc(C(=O)NCc4ccc(OCCCn5cncc5C(=O)OC)cc4)c3)CC[C@]3(C)C(CCC4[C@@]5(C)CC[C@H](O)C(C)(C)C5CC[C@]43C)C12 (some centres unmarked) [Example 234]	27	–	18.5	–
C=C(C)[C@@H]1CC[C@]2(C(=O)NCCc3cccc(C(=O)NCc4ccc(C(=O)N[C@H](Cc5ccc(O)cc5)C(=O)OC)cc4)c3)CC[C@]3(C)C(CCC4[C@@]5(C)CC[C@H](O)C(C)(C)C5CC[C@]43C)C12 (some centres unmarked) [Example 165]	20	–	13	–
C=C(C)[C@@H]1CC[C@]2(C(=O)NCCc3cccc(C(=O)NCc4ccc(C(=O)N[C@@H](C(=O)OC)C(C)C)cc4)c3)CC[C@]3(C)C(CCC4[C@@]5(C)CC[C@H](O)C(C)(C)C5CC[C@]43C)C12 (some centres unmarked) [Example 169]	9	–	20	–
C=C(C)[C@@H]1CC[C@]2(C(=O)NCCc3cccc(C(=O)NCc4ccc(C(=O)OC)o4)c3)CC[C@]3(C)C(CCC4[C@@]5(C)CC[C@H](O)C(C)(C)C5CC[C@]43C)C12 (some centres unmarked) [Example 155]	17	–	25.6	–
C=C(C)[C@@H]1CC[C@]2(CNCc3cccc(C(=O)NCc4cccc(C(=O)O)c4)c3)CC[C@@]3(C)C(CCC4[C@@]5(C)CC[C@H](O)C(C)(C)C5CC[C@]43C)C12 (some centres unmarked) [Example 143]	1300	–	120	–
C=C(C)[C@@H]1CC[C@]2(C(=O)NCCc3cccc(C(=O)NCc4ccc(N(C)C)cc4)c3)CC[C@]3(C)C(CCC4[C@@]5(C)CC[C@H](O)C(C)(C)C5CC[C@]43C)C12 (some centres unmarked) [Example 179]	98	–	72	–

Reference: patent US20090275583A1, “ANTIVIRAL COMPOUNDS AND USE THEREOF” (Myriad Genetics, Incorporated, priority 2006, published 2009)
